The assay has as its system M. tuberculosis H37Rv growth inhibition. Put plainly: M. tuberculosis H37Rv growth inhibitors, H37Rv strain (AID 1626). To be noted: for IC90: measured here: IC90 against H37Rv; for CC50: measured here: Vero cell cytotoxicity.

For `CC(C)N1CCC2(CC1)N=C(c1ccc3c(c1)OCO3)CC(c1cc(Cl)ccc1O)N2` (stereo not given), the 50% inhibitory concentration (IC50) (as a rule, the concentration that gives 50% inhibition) is 8.26 µM; the 90% effect concentration (IC90) – broadly, the point of the concentration-response curve where the effect stands at 90% – turned out to be 12.4 µM; the CC50 (in general, the concentration giving 50% cytotoxicity) was 12.5 µM.

Consider `CCCCCC(=O)Nc1ccc2ccccc2c1`, for which the IC50 was less than 0.195 µM and the concentration for an effect of 90% (IC90) was more than 100 µM.

Take `CC1CCCN(c2ccc([N+](=O)[O-])s2)C1` (stereo not given): the IC50 is 5.81 µM and the 90% effect concentration (IC90) is 6.36 µM.

With `O=C(Nc1ccc(C2=NCCN2)cc1)c1ccc(Cl)c(C(=O)Nc2ccc(C3=NCCN3)cc2)c1`, the IC50 was 7.69 µM and the IC90 is 16.9 µM.

For the compound `Cc1[nH][nH]c(=O)c1C(c1ccc(-c2ccc(Cl)cc2)o1)c1c(C)[nH][nH]c1=O`, the IC50 was 3.69 µM, the 90% effect concentration (IC90) amounted to 17 µM and the CC50 was more than 40 µM.

On to `CCOc1ccccc1/C=C/C(=O)c1ccc(Cl)cc1`, for which the IC50 was 24.3 µM, the IC90 was determined as 34.2 µM and the CC50 is more than 40 µM.

For `COc1cc(/C=C/C(=O)OCC(=O)NC(=O)NC23CC4CC(CC(C4)C2)C3)ccc1OCC#N`, the IC50 is 8.37 µM, the IC90 is more than 100 µM and the CC50 was more than 40 µM.

`COc1ccc(CCNC(=O)c2ccc(CN3CCC(Cc4ccccc4)CC3)cc2)cc1` had an IC90 of more than 100 µM and a half-maximal cytotoxic concentration (CC50) of more than 40 µM.

On to `O=C1Nc2ccccc2/C1=N\N=C\C1=C(N2CCOCC2)C(=C\c2ccccc2)/CC1`, for which the half-inhibitory concentration (IC50) is 1.29 µM, the IC90 was found to be 1.86 µM and the CC50 was more than 40 µM.

As for `CC1Cc2ccccc2N1C(=O)COC(=O)c1ccc(Cl)nc1` (stereo not given), the IC50 is 10.7 µM and the IC90 was more than 100 µM.

For `COc1cc(CN2CCCC(C(=O)c3ccccc3SC)C2)cc(OC)c1` (stereo not given), the IC50 is 22.7 µM, the 90% effect concentration (IC90) worked out at 25.9 µM and the 50% cytotoxic concentration (CC50) was more than 40 µM.

As for `CCn1c(CNc2ccccc2Cl)nnc1SCC(=O)OC1CCCCC1`, the half-inhibitory concentration (IC50) was 1.63 µM and the IC90 turned out to be 3.2 µM.

`Cc1nn(-c2ccccc2)c2c1C(c1ccc([N+](=O)[O-])cc1)N1C(=N2)C(=O)Nc2ccccc21` (stereo not given): the IC50 is 19.1 µM, the 90% effect concentration (IC90) was more than 100 µM and the CC50 is more than 40 µM.

On to `CCOc1ccc(N=C(/C(C(=O)C(=O)N2CCOCC2)=C(\O)c2ccccc2)c2ccccc2)cc1`, for which the IC50 was 38.6 µM and the IC90 is more than 100 µM.

`O=c1oc2ccccc2c(Nc2ccc3ccccc3c2)c1[N+](=O)[O-]`: the IC50 is 7.32 µM, the IC90 was more than 100 µM and the 50% cytotoxic concentration (CC50) is more than 40 µM.

In the case of `O=C(CCCSc1nnc(SCCCC(=O)c2ccc(F)cc2)s1)c1ccc(F)cc1`, the IC50 was 0.516 µM, the concentration for an effect of 90% (IC90) is 0.654 µM and the CC50 amounted to 26.4 µM.

`O=C(Nc1ncc(Cc2ccc(C(F)(F)F)cc2)s1)c1ccc(-c2cccc([N+](=O)[O-])c2)o1`: the IC50 was 60.2 µM, the IC90 was more than 100 µM and the CC50 was more than 40 µM.

As for `CCCc1cc(=O)[nH]c(SCC(=O)Nc2nc3ccc(OCC)cc3s2)n1`, the 50% cytotoxic concentration (CC50) was more than 40 µM.

Regarding `O=C(Nc1ccc2oc(-c3cccnc3)nc2c1)c1ccc([N+](=O)[O-])o1`, the half-maximal inhibitory concentration (IC50) is less than 0.195 µM, the 90% effect concentration (IC90) is more than 100 µM and the half-maximal cytotoxic concentration (CC50) was 1.32 µM.

On to `Cc1c([N+](=O)[O-])cc(C(=O)NCc2ccc(F)cc2)cc1[N+](=O)[O-]`, for which the half-inhibitory concentration (IC50) is less than 0.195 µM and the IC90 was more than 100 µM.

On to `COc1ccc(-c2nc(CN3CCCCC3c3nccn3C)c(C)o2)c(C)c1C` (stereo not given), for which the IC50 was 18.1 µM, the IC90 is 40.9 µM and the cytotoxic concentration (CC50) turned out to be 22 µM.

`O=C(C[n+]1cc(-c2ccc(F)cc2)n2c1CCC2)Nc1nc(-c2ccc(F)cc2)cs1`: the IC50 was 10.5 µM and the IC90 stood at 41.1 µM.

`CCCCC(=O)c1ccc(O)cc1`: the IC50 was 15.2 µM and the concentration for an effect of 90% (IC90) is more than 100 µM.

Turning to `CCCc1ccc(C2C3=C(CC(C)(C)CC3=O)NC3=C2C(=O)c2ccccc23)cc1` (stereo not given), the IC50 is 5.54 µM, the IC90 is more than 100 µM and the CC50 was more than 40 µM.

Values taken from PubChem BioAssay AID1626 (SRMLSC, 2009).
